Measurements as given in PMC12649225, “Machine Learning-Identified Potent Antimicrobial Peptides Against Multidrug-Resistant Bacteria and Skin Infections” (Antibiotics, 2025).
Read-outs that look alike come from different tables or passages of the source. Residues, ends and D or L forms follow the SMILES beside them.

Experiments:
[1] = test system: BJ human skin fibroblast cells; assay: WST-1 metabolic activity assay (cell viability); settings: lowest concentration causing <70% metabolic activity (WST-1); BJ fibroblasts; 24 h; DMEM with 2% FBS; 0.05-60 µM
Description: BJ human skin fibroblast cells (ATCC CRL-2522; RRID: CVCL_3653; LGC Standards, Germany (September 2023)) were cultured in Dulbecco’s Modified Eagle Medium (DMEM; Gibco, Waltham, MA, USA) supplemented with 10% (v/v) foetal bovine serum (FBS; Sigma-Aldrich) and 1% (v/v) penicillin/streptomycin (pen/strep; Gibco). Cell suspensions (5 × 10^5 cells/mL) were seeded into 96-well plates (100 μL/well; Thermo Scientific, Waltham, MA, USA) and allowed to adhere for 24 h. Monolayers were then exposed to two-fold serial dilutions of GDST peptides, their RI variants, and reference peptides (final concentrations: 0.05 to 60 µM) in fresh DMEM with 2% (v/v) FBS for 24 h at 37 °C in a humidified atmosphere with 5% CO2.
Cell viability and membrane integrity were assessed using the water-soluble tetrazolium salt (WST-1; Roche, Basel, Switzerland) assay and the lactate dehydrogenase (LDH; Abcam, Cambridge, UK) assay, respectively, according to manufacturer instructions. Results were expressed as percentages of metabolic activity and LDH leakage relative to untreated control cells and the positive lysis control, respectively. The cytotoxic concentration was defined as the lowest peptide concentration causing <70% metabolic activity and >30% LDH leakage. All experiments were performed in triplicate.

A. baumannii RUH875 = format: cell-based; settings: for LC99.9 A. baumannii RUH875 50% Plasma 18 h: RUH875, 18 h
Description: (§1) The bacterial strains used in this study included S. aureus JAR060131 [54] and the MDR ESKAPE pathogens Enterococcus faecium LUH15122, S. aureus LUH14616, Klebsiella pneumoniae LUH15104, A. baumannii RUH875 [55], Pseudomonas aeruginosa LUH15103, Enterobacter cloacae LUH15114, and the colistin-resistant Escherichia coli LUH15117. Before each experiment, bacteria from frozen stocks were cultured at 37 °C for 18–24 h on sheep blood agar plates (BioMérieux, Marcy-l’Étoile, France). All strains were then cultured from colonies either in tryptic soy broth (TSB; Oxoid, Basingstoke, UK) for A. baumannii, S. aureus, and E. faecium, or in brain heart infusion broth (BHI; Oxoid) for K. pneumoniae, P. aeruginosa, E. cloacae, and E. coli at 37 °C with shaking at 120 rpm for 18–24 h. Subsequently, bacteria were cultured to mid-logarithmic phase in the media described above at 37 °C with shaking at 120 rpm for 3 h. Bacteria were then washed twice with PBS and diluted to the required inoculum suspension concentration in Roswell Park Memorial Institute (RPMI)-1640 medium containing 20 mM HEPES and L-glutamine but without sodium bicarbonate (Sigma-Aldrich; hereafter referred to as RPMI), based on optical density at 620 nm. RPMI was selected because it supports bacterial growth without impairing AMP activity.
(§2) Bactericidal activity was assessed as described by de Breij et al.. Briefly, mid-logarithmic phase bacterial cultures were diluted to a final concentration of 1 × 10^7 colony-forming units (CFU)/mL in RPMI. Then, 10 µL was added to a final volume of 100 µL in RPMI (final concentration: 1 × 10^6 CFU/mL). Cultures were exposed to peptides either in RPMI or RPMI supplemented with 50% (v/v) human plasma (hereafter referred to as 50% plasma), obtained from four healthy volunteers after informed consent, frozen after collection, and pooled (Sanquin, Amsterdam, The Netherlands). Assays were performed in duplicate using round-bottom polypropylene microtiter plates (Costar, Arlington, VA, USA) and repeated three times. In the initial screening phase (Table 1, Table 2 and Table S1), peptide solutions of 1, 10, and 100 μM (final concentration) were tested against A. baumannii RUH875 and S. aureus JAR060131 in RPMI and in 50% plasma. After this selection process, two lead candidates, their RI variants, and reference peptides were tested with a final concentration range of 0.12 to 120 µM (two-fold dilutions) in RPMI and in 50% plasma (Table 3). The peptides were also tested against ESKAPE pathogens, with Synthetic Antimicrobial and Antibiofilm Peptide (SAAP)-148 as a reference peptide (Table 4).RPMI or 50% plasma served as no-treatment controls. After 2 and 18 h of incubation at 37 °C with shaking at 120 rpm in a humidified environment, the numbers of viable bacteria were quantified. Bactericidal activity was expressed as the lethal concentration 99.9% (LC99.9), defined as the lowest peptide concentration that killed ≥99.9% of bacteria within 2 h (LC99.9_2h) or 18 h (LC99.9_18h) compared to the initial inoculum.

S. aureus JAR060131 = format: cell-based; settings: for LC99.9 S. aureus JAR060131 50% Plasma 18 h: JAR060131, 18 h
Description: as §1, §2

P. aeruginosa LUH15103 = format: cell-based; settings: for LC99.9 P. aeruginosa LUH15103 50% Plasma 2 h / LC99.9 P. aeruginosa LUH15103 RPMI 2 h: LUH15103, 2 h; for LC99.9 P. aeruginosa LUH15103 50% Plasma 18 h / LC99.9 P. aeruginosa LUH15103 RPMI 18 h: LUH15103, 18 h
Description: as §1, §2

E. coli LUH15117 = format: cell-based; settings: for LC99.9 E. coli LUH15117 RPMI 2 h: LUH15117, 2 h
Description: as §1, §2

K. pneumoniae LUH15104 = format: cell-based; settings: for LC99.9 K. pneumoniae LUH15104 50% Plasma 2 h / LC99.9 K. pneumoniae LUH15104 RPMI 2 h: LUH15104, 2 h; for LC99.9 K. pneumoniae LUH15104 50% Plasma 18 h / LC99.9 K. pneumoniae LUH15104 RPMI 18 h: LUH15104, 18 h
Description: as §1, §2

MDR ESKAPE pathogens = assay: Bactericidal activity (LC99.9), statements for the whole panel; format: cell-based; settings: 50% plasma; 2 h; range over the three species
Description: as §1, §2

[2] = test system: A. baumannii RUH875 biofilm; assay: Biofilm killing; format: cell-based, Acinetobacter baumannii; settings: for Concentration killing ≥3 log CFU of A. baumannii biofilm within 2 h: 2 h treatment in PBS, 1.88-120 μM, vs untreated biofilm
Description: Mid-logarithmic phase cultures of A. baumannii RUH875 or S. aureus JAR060131 were diluted to 1 × 10^8 CFU/mL in RPMI supplemented with 1% glucose. A total of 100 μL of each suspension was added to flat-bottom polystyrene 96-well microplates (Costar) and incubated under static conditions at 37 °C in a humidified atmosphere for 24 h to allow biofilm formation. After 24 h, planktonic bacteria were removed, and wells were carefully washed with 100 μL PBS [60]. […] Control samples were exposed to 100 μL of PBS only.
Biofilms were treated at 37 °C for either 2 or 24 h. […] Plates were sealed and sonicated for 5 min (Elmasonic, Singen, Germany; 45 kHz) at room temperature to dislodge adherent bacteria. […] Quantitative cultures were performed by plating serial 10-fold dilutions on sheep blood agar, and results were expressed as log10 CFU per well. The lower limit of detection was three CFU. Each condition was tested in six replicates.

In the case of `CC[C@@H](C)[C@@H](NC(=O)[C@@H](C)NC(=O)[C@@H](CCCCN)NC(=O)[C@@H](CCCCN)NC(=O)[C@@H](Cc1c[nH]c2ccccc12)NC(=O)[C@@H](Cc1c[nH]c2ccccc12)NC(=O)[C@@H](CCCNC(=N)N)NC(=O)[C@@H](CC(C)C)NC(=O)[C@@H](CC(C)C)NC(C)=O)C(=O)N[C@H](CCCCN)C(=O)N[C@@H](C(=O)N[C@H](Cc1c[nH]c2ccccc12)C(=O)N[C@H](CCCNC(=N)N)C(=O)N[C@H](CCCCN)C(N)=O)C(C)C` [GDST-038-RI] (HELM PEPTIDE1{[ac].[dL].[dL].[dR].[dW].[dW].[dK].[dK].[dA].[dI].[dK].[dV].[dW].[dR].[dK].[am]}$$$$V2.0; N-terminus and C-terminus assumed), the “Cytotoxicity Metabolic Activity <70%” value [1] is reported as 3.75 µM, the “LC99.9 A. baumannii RUH875 50% Plasma 18 h” value (A. baumannii RUH875) is reported as 0.94 µM and the “LC99.9 S. aureus JAR060131 50% Plasma 2 h” value (S. aureus JAR060131; JAR060131, 2 h) is reported as 3.75 µM. The “LC99.9 S. aureus JAR060131 50% Plasma 18 h” value (S. aureus JAR060131) was 3.75 µM, the “LC99.9 P. aeruginosa LUH15103 50% Plasma 2 h” value (P. aeruginosa LUH15103) was 30 µM and the “LC99.9 P. aeruginosa LUH15103 RPMI 2 h” value (P. aeruginosa LUH15103) was 15 µM. The “LC99.9 P. aeruginosa LUH15103 50% Plasma 18 h” value (P. aeruginosa LUH15103) was 15 µM, the “LC99.9 P. aeruginosa LUH15103 RPMI 18 h” value (P. aeruginosa LUH15103) was 7.5 µM and the “LC99.9 E. coli LUH15117 RPMI 2 h” value (E. coli LUH15117) was 3.75 µM. The “LC99.9 E. coli LUH15117 RPMI 18 h” value (E. coli LUH15117; LUH15117, 18 h) was 0.94 µM, the “LC99.9 K. pneumoniae LUH15104 50% Plasma 2 h” value (K. pneumoniae LUH15104) was 15 µM and the “LC99.9 K. pneumoniae LUH15104 RPMI 2 h” value (K. pneumoniae LUH15104) was 15 µM. For the same compound, the “LC99.9 K. pneumoniae LUH15104 50% Plasma 18 h” value (K. pneumoniae LUH15104) was 3.75 µM, the “LC99.9 K. pneumoniae LUH15104 RPMI 18 h” value (K. pneumoniae LUH15104) was 7.5 µM and the “Concentrations required for E. cloacae, S. aureus and P. aeruginosa in 50% plasma within 2 h” value (MDR ESKAPE pathogens) was 30 to 60 µM. The “Concentration killing ≥3 log CFU of A. baumannii biofilm within 2 h” value ([2]; 24 h biofilm) was 60 µM and the “Concentration giving complete eradication of A. baumannii biofilm, 24 h treatment” value ([2]; 24 h biofilm, 24 h treatment in PBS) was at least 60 µM.
Ac-KRWVKIAKKWWRLL-NH2 [GDST-038] was tested, and the “Cytotoxicity Metabolic Activity <70%” value [1] was 3.75 µM, the “LC99.9 A. baumannii RUH875 50% Plasma 2 h” value (A. baumannii RUH875; RUH875, 2 h) was 0.94 µM and the “LC99.9 A. baumannii RUH875 50% Plasma 18 h” value (A. baumannii RUH875) was 0.47 µM. The “LC99.9 S. aureus JAR060131 50% Plasma 2 h” value (S. aureus JAR060131; 50% plasma, 2 h, median of three independent experiments) was 1.88 µM, the “LC99.9 S. aureus JAR060131 RPMI 2 h” value (S. aureus JAR060131; JAR060131, 2 h) was 0.94 µM and the “LC99.9 S. aureus JAR060131 50% Plasma 18 h” value (S. aureus JAR060131) was 0.94 µM. For the same compound, the “LC99.9 P. aeruginosa LUH15103 50% Plasma 2 h” value (P. aeruginosa LUH15103) was 15 µM, the “LC99.9 P. aeruginosa LUH15103 RPMI 2 h” value (P. aeruginosa LUH15103) was 7.5 µM and the “LC99.9 P. aeruginosa LUH15103 50% Plasma 18 h” value (P. aeruginosa LUH15103) was 15 µM. For the same compound, the “LC99.9 P. aeruginosa LUH15103 RPMI 18 h” value (P. aeruginosa LUH15103) was 3.75 µM, the “LC99.9 E. coli LUH15117 RPMI 2 h” value (E. coli LUH15117) was 0.94 µM and the “LC99.9 E. coli LUH15117 RPMI 18 h” value (E. coli LUH15117; colistin-resistant strain, RPMI, 18 h, median of three independent experiments) was 1.88 µM. For the same compound, the “LC99.9 K. pneumoniae LUH15104 50% Plasma 2 h” value (K. pneumoniae LUH15104) was 7.5 µM, the “LC99.9 K. pneumoniae LUH15104 RPMI 2 h” value (K. pneumoniae LUH15104) was 3.75 µM and the “LC99.9 K. pneumoniae LUH15104 50% Plasma 18 h” value (K. pneumoniae LUH15104) was 3.75 µM. The “LC99.9 K. pneumoniae LUH15104 RPMI 18 h” value (K. pneumoniae LUH15104) was 3.75 µM, the “Concentrations required for E. cloacae, S. aureus and P. aeruginosa in 50% plasma within 2 h” value (MDR ESKAPE pathogens) was 30 to 60 µM and the “Concentration killing ≥3 log CFU of A. baumannii biofilm within 2 h” value ([2]; 24 h biofilm) was 120 µM. The “A. baumannii biofilm killing, 24 h treatment (in words)” value ([2]; 24 h treatment, up to 120 µM) was “did not cause significant biofilm CFU reduction”.
